According to US20160089401A1, “USES OF TREHALOSE IN CELL SUSPENSIONS” (Cook General Biotechnology LLC, priority 2014, published 2016):

Experiments:
[1] = test system: canine uterine regenerative cells (mesenchymal stem cell populations obtained from canine uterine tissue); assay: Clumping of thawed previously-cryopreserved cells in saline bags with candidate anti-clumping agents; format: cell-based
Procedure: The cells used in this Example were purified mesenchymal stem cell populations obtained from canine uterine tissue (from passage 5). The cells were frozen in cryovials in 2% DMSO in VetStarch. The frozen cell samples were provided as 2 mL aliquots with a cell density of 10 million cells/mL. Cells from 3 different canine donors were included n the testing, labeled herein as Donor1; Donor2 and Donor3.
Experiments were performed in 50 mL bags commonly used for saline solutions to be administered to the bloodstream of patients. The experimental volume for the prepared cell suspension was between 5-10 mL depending on the run. Chemicals tested for their anti-clumping ability included dextrose, hydroxyethyl starch, and trehalose. Concentrations of these chemicals varied between experiments. Solutions of anti-clumping agents were prepared then injected into the bags. Concentration and volumes were computed so that targeted concentrations of anti-clumping agents were reached once the cells were injected in the bag. Volumes were chosen so that the cells were at one million cells/mL after preparation of the final composition in the bags.
Cryovials containing the cells were thawed in a 37° C. water bath until ice crystals just thawed. Cells were drawn out of the vial through a needle septum of the vial with an 18 gauge needle and slowly added to the bag through a needle septum of the bag so as not to lyse the cells. The vial was then washed with saline and this wash volume was also carefully injected into the bag through the needle septum.

[2] = test system: canine uterine regenerative cells (mesenchymal stem cell populations obtained from canine uterine tissue); assay: Post-bag cell viability by trypan blue staining; format: cell-based
Procedure: After time in the bag had expired, the cells were carefully removed from the bag with a syringe and 18 gauge needles. This volume was carefully placed in a 50 mL conical flask. It was mixed to ensure even distribution of cells, then mixed 1:1 with trypan blue and counted to determine viability. The volume was then centrifuged at 400 g for 5 minutes, supernatant aspirated, and resuspended in 2mL complete media. 1 mL of this cell suspension was then plated into a T25 flask. 24 hours later, the plates were observed and the condition of the cells noted.

[3] = Donor2 cells, 1 million/mL, trehalose 1.65%
[4] = Donor2 cells, 1 million/mL, trehalose 3.3%
[5] = summary, previously-cryopreserved cells after thawing

OC[C@H]1O[C@H](O[C@H]2O[C@H](CO)[C@@H](O)[C@H](O)[C@H]2O)[C@H](O)[C@@H](O)[C@@H]1O [trehalose, (2R,3S,4S,5R,6R)-2-(hydroxymethyl)-6-[(2R,3R,4S,5S,6R)-3,4,5-trihydroxy-6-(hydroxymethyl)oxan-2-yl]oxyoxane-3,4,5-triol]
clumps after 80 minutes ([1]; Donor1 cells (section 1.7 run), 1 million/mL, trehalose 3.3%): essentially all clumps were very small and barely visible with the exception of one or two slightly larger clumps
time at which some clumping was observed ([1]; Donor1 cells (section 1.7 run), 1 million/mL, trehalose 3.3%, barely visible, very small clumps): 20 min
clumps after 80 minutes ([1]; Donor1 cells, 1 million/mL, trehalose 3.3% in final preparation): no clumps formed
clumps after 80 minutes [1, 3]: a few stringy clumps
time at which small clumps began to form [1, 3]: 20 min
clumps after 80 minutes [1, 4]: only several clumps and they remained small
time at which small clumps began to form [1, 4]: 20 min
clumps after 80 minutes ([1]; Donor3 cells, 1 million/mL, trehalose 3.3%): only several very small clumps and they were still barely visible
time at which clumps began to form ([1]; Donor3 cells, 1 million/mL, trehalose 3.3%, clumps very small and barely visible): 20 min
reduction of cell clumping as compared to saline alone [1, 5]: greatly reduces clumping
size/appearance of clumps present [1, 5]: tiny generally spheroid particles barely visible to the human eye
viability by trypan blue staining ([2]; Donor1 cells, end of clumping experiment, trehalose 3.3%, hydroxyethyl starch 25% in final preparation): 94%
cell viability ([2]; summary, after exposure for an estimated duration of cell infusion): above 90%
